Assay results taken from ChEMBL document CHEMBL1152465, “Comparative evaluation of the inhibitory activities of a series of pyrimidinedione congeners that inhibit human immunodeficiency virus types 1 and 2” (Antimicrob Agents Chemother, 2008).
The source made the active and inactive calls.

Tests used:
[1] = Cytotoxicity against human CEM-SS cells by XTT assay; type: cell-based; details: read-out: TC50 (the source's name)
[2] = Therapeutic index, ratio of TC50 for human CEM-SS cells to EC50 for HIV2 ROD infected in human CEM-SS cells; type: cell-based; details: for TI: cem-ss; for selectivity ratio: CEM-SS cells, read-out: TI
[3] = target: Human immunodeficiency virus type 1 reverse transcriptase (Human immunodeficiency virus 1, UniProt Q72547, K103N); assay: Inhibition of HIV1 reverse transcriptase K103N mutant assessed as 32P-labeled GMP incorporation into nascent DNA strand
[4] = Cytotoxicity against human HeLa cells expressing CD4-LTR by XTT assay; type: cell-based; details: read-out: TC50 (the source's name)
[5] = tested on: Human immunodeficiency virus 2; assay: Antiviral activity against HIV2 assessed as inhibition of viral single round replication at early time point; type: functional, organism-based
[6] = tested on: Human immunodeficiency virus 2; assay: Antiviral activity against HIV2 assessed as inhibition of viral replication treated at time points after viral entry into host cells; type: functional, organism-based
[7] = Therapeutic index, ratio of TC50 for human CEM-SS cells to EC50 for HIV1 RF infected in human CEM-SS cells; type: cell-based; details: read-out: TI
[8] = tested on: Human immunodeficiency virus 2; assay: Inhibition of HIV2 reverse transcriptase
[9] = tested on: Human immunodeficiency virus 1; assay: Antiviral activity against HIV1 RF infected in human CEM-SS cells assessed as inhibition of virus-induced cytopathic effect by XTT assay; type: functional, organism-based; details: Human immunodeficiency virus 1, RF
[10] = tested on: Human immunodeficiency virus 1; assay: Antiviral activity against HIV1 infected in human CEM-SS cells assessed as inhibition of viral replication and virus-induced cytopathic effect by dose-response curve analysis; type: functional; details: Human immunodeficiency virus 1, CEM-SS
[11] = target: Human immunodeficiency virus type 1 reverse transcriptase (Human immunodeficiency virus 1, UniProt Q72547); assay: Inhibition of wild type HIV1 reverse transcriptase assessed as 32P-labeled GMP incorporation into nascent DNA strand
[12] = tested on: Human immunodeficiency virus 1; assay: Antiviral activity against HIV1 infected in human HeLa cells expressing CD4-LTR assessed as inhibition of viral entry-related beta galactosidase expression treated for 2 hrs followed by drug wash out measured after 48 hrs by MAGI assay; type: functional, organism-based; details: Human immunodeficiency virus 1, HeLa
[13] = Therapeutic index, ratio of TC50 human HeLa cells expressing CD4-LTR to EC50 for HIV1 entry inhibition in human HeLa cells expressing CD4-LTR; type: cell-based; details: read-out: TI
[14] = tested on: Human immunodeficiency virus 2; assay: Inhibition of HIV2 reverse transcriptase assessed as 32P-labeled GMP incorporation into nascent DNA strand at highest concentration
[15] = tested on: Human immunodeficiency virus 2; assay: Antiviral activity against HIV2 ROD infected in human CEM-SS cells assessed as inhibition of virus-induced cytopathic effect by XTT assay; type: functional, organism-based, ISOLATE ROD
[16] = Human immunodeficiency virus 2, ISOLATE ROD, CEM-SS, read-out: EC50

Structure (SMILES): Cc1cc(C)cc(Oc2c(C(C)C)c(=O)[nH]c(=O)n2CCC2CCCC2)c1
- CC50 [1]: 7.8 µM
- TI [2]: Not Active
- IC50 [3]: 16.2 µM
- CC50 [4]: 12.7 µM
- Activity [5]: Active
- Activity [6]: inactive
- selectivity ratio [7]: 145
- Activity [8]: inactive
- EC50 [9]: 50 nM
- EC99 [10]: 1 µM
- IC50 [11]: 234 nM
- EC50 [12]: 20 nM
- selectivity ratio [13]: 675
- Activity [14]: inactive
- EC50 ([15]; cem-ss): Not Active

Structure (SMILES): CCc1c(Sc2cc(C)cc(C)c2)n(CCC2=CCCC2)c(=O)[nH]c1=O
- CC50 [1]: 143 µM
- selectivity ratio [2]: 7.4
- IC50 [3]: 18.3 µM
- CC50 [4]: 143 µM
- Activity [5]: Active
- Activity [6]: inactive
- selectivity ratio [7]: 528
- Activity [8]: inactive
- EC50 [9]: 270 nM
- EC99 [10]: 1 µM
- IC50 [11]: 2160 nM
- EC50 [12]: 30 nM
- selectivity ratio [13]: 4400
- Activity [14]: inactive
- EC50 [15, 16]: 19200 nM

Structure (SMILES): Cc1cc(C)cc(Oc2c(C(C)C)c(=O)[nH]c(=O)n2CCC2=CCCC2)c1
- CC50 [1]: 17.1 µM
- TI [2]: Not Active
- IC50 [3]: 176 µM
- CC50 [4]: 17.4 µM
- Activity [5]: Active
- Activity [6]: inactive
- selectivity ratio [7]: 90
- Activity [8]: inactive
- EC50 [9]: 190 nM
- EC99 [10]: 1 µM
- IC50 [11]: 1540 nM
- EC50 [12]: 2700 nM
- selectivity ratio [13]: 6
- Activity [14]: inactive
- EC50 ([15]; cem-ss): Not Active

Structure (SMILES): CCc1c(Sc2ccccc2)n(CC2CC=CC2)c(=O)[nH]c1=O
- CC50 [1]: 20.7 µM
- TI [2]: Not Active
- IC50 [3]: 17.1 µM
- CC50 [4]: 30.3 µM
- Activity [5]: Active
- Activity [6]: inactive
- selectivity ratio [7]: 262
- Activity [8]: inactive
- EC50 [9]: 150 nM
- EC99 [10]: 1 µM
- IC50 [11]: 366 nM
- EC50 [12]: 20 nM
- selectivity ratio [13]: 1250
- Activity [14]: inactive
- EC50 ([15]; cem-ss): Not Active

Structure (SMILES): Cc1cc(C)cc(Oc2c(C(C)C)c(=O)[nH]c(=O)n2CC2CCCC2)c1
- CC50 [1]: 11.8 µM
- selectivity ratio [2]: 8.8
- IC50 [3]: 1.14 µM
- CC50 [4]: 15.5 µM
- Activity [5]: Active
- Activity [6]: inactive
- selectivity ratio [7]: 1050
- Activity [8]: inactive
- EC50 [9]: 19 nM
- EC99 [10]: 1 µM
- IC50 [11]: 157 nM
- EC50 [12]: 870 nM
- selectivity ratio [13]: 18
- Activity [14]: inactive
- EC50 [15, 16]: 1300 nM

Structure (SMILES): Cc1cc(C)cc(C(=O)c2c(C(C)C)c(=O)[nH]c(=O)n2CC2CCCC2)c1
- CC50 [1]: 15.2 µM
- selectivity ratio [2]: 40
- IC50 [3]: 15.3 µM
- CC50 [4]: 16.6 µM
- Activity [5]: Active
- Activity [6]: inactive
- selectivity ratio [7]: 5080
- Activity [8]: inactive
- EC50 [9]: 3.5 nM
- EC99 [10]: 1 µM
- IC50 [11]: 147 nM
- EC50 [12]: 80 nM
- selectivity ratio [13]: 203
- Activity [14]: inactive
- EC50 [15, 16]: 400 nM

Structure (SMILES): Cc1cc(C)cc(Sc2c(C(C)C)c(=O)[nH]c(=O)n2Cc2ccccc2)c1
- CC50 [1]: 192 µM
- selectivity ratio [2]: 1220
- IC50 [3]: 1.66 µM
- CC50 [4]: 192 µM
- Activity [5]: Active
- Activity [6]: inactive
- selectivity ratio [7]: 165000
- Activity [8]: inactive
- EC50 [9]: 1.2 nM
- EC99 [10]: 1 µM
- IC50 [11]: 137 nM
- EC50 [12]: 80 nM
- selectivity ratio [13]: 2340
- Activity [14]: inactive
- EC50 [15, 16]: 200 nM

Structure (SMILES): CCc1c(Oc2cc(C)cc(C)c2)n(CCC2C=CCC2)c(=O)[nH]c1=O (stereo not given)
- CC50 [1]: 1100 µM
- selectivity ratio [2]: > 1650
- IC50 [3]: 1.96 µM
- CC50 [4]: 1110 µM
- Activity [5]: Active
- Activity [6]: inactive
- selectivity ratio [7]: 570000
- Activity [8]: inactive
- EC50 [9]: 1.9 nM
- EC99 [10]: 1 µM
- IC50 [11]: 210 nM
- EC50 [12]: 60 nM
- selectivity ratio [13]: 17600
- Activity [14]: inactive
- EC50 [15, 16]: 700 nM

Structure (SMILES): Cc1cc(C)cc(C(=O)c2c(C(C)C)c(=O)[nH]c(=O)n2CCC2=CCCC2)c1
- CC50 [1]: 19.2 µM
- TI [2]: Not Active
- IC50 [3]: 230 µM
- CC50 [4]: 29.4 µM
- Activity [5]: Active
- Activity [6]: inactive
- selectivity ratio [7]: 750
- Activity [8]: inactive
- EC50 [9]: 53 nM
- EC99 [10]: 1 µM
- IC50 [11]: 223 nM
- EC50 [12]: 30 nM
- selectivity ratio [13]: 1040
- Activity [14]: inactive
- EC50 ([15]; cem-ss): Not Active

Structure (SMILES): CCc1c(Oc2cc(C)cc(C)c2)n(CCC2CCCC2)c(=O)[nH]c1=O
- CC50 [1]: 27 µM
- TI [2]: Not Active
- IC50 [3]: 6.4 µM
- CC50 [4]: 55.9 µM
- Activity [5]: Active
- Activity [6]: inactive
- selectivity ratio [7]: 57
- Activity [8]: inactive
- EC50 [9]: 1490 nM
- EC99 [10]: 1 µM
- IC50 [11]: 549 nM
- EC50 [12]: 2350 nM
- selectivity ratio [13]: 24
- Activity [14]: inactive
- EC50 ([15]; cem-ss): Not Active

Structure (SMILES): CCc1c(C(=O)c2cc(C)cc(C)c2)n(Cc2ccccc2)c(=O)[nH]c1=O
- CC50 [1]: 24.6 µM
- selectivity ratio [2]: 59.3
- IC50 [3]: 2.3 µM
- CC50 [4]: 562 µM
- Activity [5]: Active
- Activity [6]: inactive
- selectivity ratio [7]: 68300
- Activity [8]: inactive
- EC50 [9]: 16 nM
- EC99 [10]: 1 µM
- IC50 [11]: 25 nM
- EC50 [12]: 50 nM
- selectivity ratio [13]: 10200
- Activity [14]: inactive
- EC50 [15, 16]: 400 nM

Structure (SMILES): Cc1cc(C)cc(Sc2c(C(C)C)c(=O)[nH]c(=O)n2CC2CCCCC2)c1
- CC50 [1]: 13.2 µM
- selectivity ratio [2]: 2.4
- IC50 [3]: > 258 µM
- CC50 [4]: 15.2 µM
- Activity [5]: Active
- Activity [6]: inactive
- selectivity ratio [7]: 1560
- Activity [8]: inactive
- EC50 [9]: 11 nM
- EC99 [10]: 1 µM
- IC50 [11]: 164 nM
- EC50 [12]: 8 nM
- selectivity ratio [13]: 1890
- Activity [14]: inactive
- EC50 [15, 16]: 5500 nM

Structure (SMILES): CCc1c(Sc2cc(C)cc(C)c2)n(CC2CC2)c(=O)[nH]c1=O
- CC50 [1]: 7.6 µM
- selectivity ratio [2]: 62.5
- IC50 [3]: 0.257 µM
- CC50 [4]: 14.4 µM
- Activity [5]: Active
- Activity [6]: inactive
- selectivity ratio [7]: 25500
- Activity [8]: inactive
- EC50 [9]: 0.8 nM
- EC99 [10]: 1 µM
- IC50 [11]: 18 nM
- EC50 [12]: 9 nM
- selectivity ratio [13]: 1580
- Activity [14]: inactive
- EC50 [15, 16]: 100 nM

Structure (SMILES): Cc1cc(C)cc(Sc2c(C(C)C)c(=O)[nH]c(=O)n2CCC2CCCC2)c1
- CC50 [1]: 14.2 µM
- TI [2]: Not Active
- IC50 [3]: 205 µM
- CC50 [4]: 15.4 µM
- Activity [5]: Active
- Activity [6]: inactive
- selectivity ratio [7]: 92
- Activity [8]: inactive
- EC50 [9]: 150 nM
- EC99 [10]: 1 µM
- IC50 [11]: 233 nM
- EC50 [12]: 1280 nM
- selectivity ratio [13]: 12
- Activity [14]: inactive
- EC50 ([15]; cem-ss): Not Active
